In brackets after ≈: the same amount, converted by molar mass.
Assays:
[1] = tested on: L. crescens BT-1
[2] = physchem; settings: pH 5.6
[3] = tested on: CLas; format: in vivo, Candidatus Liberibacter asiaticus; settings: CLas-infected citron leaves, petioles soaked with 200 ng in buffer; D. citri nymphs 21 days; versus buffer control

Compound	MIC [1] [µg/mL]	solubility [2] [mg/mL]	ability of bacteria in treated leaves to infect psyllid nymphs (CLas abundance in adult psyllids, FIG. 4) [3]
CC[C@H](C)[C@H](NC(=O)[C@H](CC(=O)O)NC(=O)[C@H](Cc1ccccc1)NC(C)=O)C(=O)N[C@@H](CCSC)C(=O)NCC(=O)N[C@@H](CC(C)C)C(=O)N[C@H](C(=O)N[C@@H](CCCCN)C(=O)N[C@@H](CCCCN)C(=O)N[C@H](C(=O)N[C@@H](C)C(=O)NCC(=O)N[C@@H](C)C(=O)N[C@@H](CC(C)C)C(N)=O)C(C)C)[C@@H](C)CC [EMP-ER, FDIMGLIKKVAGAL]	200 (≈ 0.132 mM)	≥ 10	–
Ac-FDVMGIIKKIAGAL-NH2 [EMP-EF, FDVMGIIKKIAGAL]	200	< 5	–
Ac-GRILSFIKGLAEHL-NH2 [EMP-OD, GRILSFIKGLAEHL]	400	> 20	–
Ac-IDWLKLGKMVMDVL-NH2 [Venom_protein_13b, IDWLKLGKMVMDVL]	200	< 5	–
Ac-INLKAIAAFAKKLL-NH2 [Mastoparan-T, INLKAIAAFAKKLL]	200	> 20	–
Ac-INLKAIAALARNY-NH2 [Mastoparan-VT7, INLKAIAALARNY]	>200	< 5	–
Ac-INLKAIAALVKKLL-NH2 [Mastoparan-VT6]	100	> 20	–
Ac-INLKAIAAMAKKLL-NH2 [Mastoparan-like_12d, INLKAIAAMAKKLL]	400	> 20	–
Ac-INLKAIAPLAKKLL-NH2 [Mastoparan-VT4, INLKAIAPLAKKLL]	–	> 20	–
Ac-INLKAITALAKKLL-NH2 [Mastoparan-VT3, INLKAITALAKKLL]	400	≥ 10	–
Ac-INLLKIAKGIIKSL-NH2 [EMP-AF, INLLKIAKGIIKSL]	1000	> 20	–
Ac-INMKASAAVAKKLL-NH2 [MP-VB1t, INMKASAAVAKKLL]	>1000	> 20	–
Ac-INWKGIAAMAKKLL-NH2 [Mastoparan-X, INWKGIAAMAKKLL]	1000	> 20	–
Ac-INWKGIAAMKKLL-NH2 [Mastoparan-like_12b, INWKGIAAMKKLL]	>1000	> 20	–
Ac-INWKKIASIGKEVLKAL-NH2 [PMM, INWKKIASIGKEVLKAL]	200	> 20	–
Ac-INWKKIFEKVKNLV-NH2 [PDD-A, INWKKIFEKVKNLV]	200	> 20	–
Ac-INWKKIKSIIKAAMN-NH2 [Mastoparan-V1, INWKKIKSIIKAAMN]	400	> 20	–
Ac-INWKKIKSLIKAAMS-NH2 [Mastoparan-V2, INWKKIKSLIKAAMS]	200	> 20	–
Ac-INWKKMAATALKMI-NH2 [Parapolybia-MP, INWKKMAATALKMI]	>1000	> 20	–
Ac-INWLKLGKKILGAI-NH2 [Mastoparan-R1, INWLKLGKKILGAI]	200	> 20	–
Ac-INWLKLGKKILGAL-NH2 [PDD-B, INWLKLGKKILGAL]	1000	> 20	–
Ac-INWLKLGKKMMSAL-NH2 [MP, INWLKLGKKMMSAL]	1000	> 20	–
Ac-INWLKLGKMVIDAL-NH2 [Polybia-MPII, INWLKLGKMVIDAL]	400	> 20	–
Ac-INWLKLGKQILGAL-NH2 [Mastoparan-R3, INWLKLGKQILGAL]	400	> 20	–
Ac-LKLLGIVKKVLGAI-NH2 [EMP-EM2, LKLLGIVKKVLGAI]	200	< 5	–
Ac-LKLMGIVKKVLGAL-NH2 [EMP-EM1, LKLMGIVKKVLGAL]	200	≥ 10	–
Ac-LNFKALAALAKKIL-NH2 [Mastoparan-R2, LNFKALAALAKKIL]	200	> 20	–
Ac-NLKAIAALAKKLL-NH2 [Mastoparan-VT2, NLKAIAALAKKLL]	400	> 20	–
Ac-VIVKAIATLSKKLL-NH2 [Mastoparan-VT5, VIVKAIATLSKKLL]	>1000	> 20	–
polymyxin B [PMB, reference compound]	–	–	less able to infect the psyllid nymphs
